From patent publication US8592422B2, “Bicyclic triazole and pyrazole lactams as allosteric modulators of mGluR5 receptors” (Vanderbilt University, priority 2010, dated 2013) come the findings set out here.

A word on the melting point: it is the temperature of the solid-liquid transition. What is called Emax is the maximal effect, on the per cent scale that the assay sets.

Like-named read-outs stand apart in the source and are kept apart here.

The target of one data set is T1, human mGluR5a receptor (Homo sapiens, UniProt P41594).
T1 construct: cDNA subcloned into pcDNA3.1(-)
T1 sequence (P41594 21-1180 isoform P41594-2 limits assumed): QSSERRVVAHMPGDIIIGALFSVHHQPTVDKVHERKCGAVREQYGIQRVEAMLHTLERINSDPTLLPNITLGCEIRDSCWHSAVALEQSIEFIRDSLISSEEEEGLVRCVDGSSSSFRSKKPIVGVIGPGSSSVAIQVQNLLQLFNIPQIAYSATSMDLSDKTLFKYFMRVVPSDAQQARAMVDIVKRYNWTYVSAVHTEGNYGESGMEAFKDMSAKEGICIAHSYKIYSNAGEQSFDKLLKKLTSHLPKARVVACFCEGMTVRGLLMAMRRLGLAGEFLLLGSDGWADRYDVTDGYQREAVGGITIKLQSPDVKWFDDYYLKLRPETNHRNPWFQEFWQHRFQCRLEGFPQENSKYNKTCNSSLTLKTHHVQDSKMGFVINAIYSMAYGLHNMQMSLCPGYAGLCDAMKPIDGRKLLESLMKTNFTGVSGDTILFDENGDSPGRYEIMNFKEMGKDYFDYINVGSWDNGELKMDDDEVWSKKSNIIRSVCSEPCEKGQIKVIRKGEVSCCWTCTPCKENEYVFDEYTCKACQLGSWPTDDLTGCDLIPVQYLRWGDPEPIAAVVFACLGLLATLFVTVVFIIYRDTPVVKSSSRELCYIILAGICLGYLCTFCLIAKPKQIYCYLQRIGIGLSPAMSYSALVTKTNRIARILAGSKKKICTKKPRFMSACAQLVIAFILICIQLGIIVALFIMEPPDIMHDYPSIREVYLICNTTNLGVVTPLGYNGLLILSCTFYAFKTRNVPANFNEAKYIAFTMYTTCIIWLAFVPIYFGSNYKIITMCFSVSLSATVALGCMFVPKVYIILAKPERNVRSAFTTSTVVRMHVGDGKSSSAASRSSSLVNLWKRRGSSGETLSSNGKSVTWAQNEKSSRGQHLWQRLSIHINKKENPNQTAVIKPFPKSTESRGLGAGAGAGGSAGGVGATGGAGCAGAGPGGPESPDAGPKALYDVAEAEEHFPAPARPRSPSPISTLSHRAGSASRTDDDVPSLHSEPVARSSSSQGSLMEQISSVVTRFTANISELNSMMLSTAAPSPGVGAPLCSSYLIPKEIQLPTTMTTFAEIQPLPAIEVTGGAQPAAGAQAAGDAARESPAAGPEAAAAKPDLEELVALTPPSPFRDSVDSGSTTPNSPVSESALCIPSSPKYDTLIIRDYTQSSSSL
Nature of the data set: Cell-based functional Ca2+ mobilization assay (FDSS), potentiation of glutamate EC20 response. The conditions noted are these: for EC50: HEK cells transfected with human mGluR5 (H10H or H12H), in presence of EC20 glutamate; for Emax: maximum % effect in concentration-response curve, as percent of response to maximally effective glutamate. The method in brief: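 HEK293A cells stably expressing human mGluR5a (H10H or H12H clones), plated overnight in glutamate-glutamine-free medium, loaded with Ca2+-sensitive dye (e.g. Fluo-4) and read on FDSS.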
Background: A change in cytosolic calcium serves as a functional read-out for many receptors and channels.

`CC(C)CCc1cccc(N2CCn3nc(COc4ccccc4)cc3C2=O)n1` [Example 65] yielded a melting point of 76.7 °C. Further, on human mGluR5a receptor (read-out: EC50), the EC50 was 363 nM. In addition, at human mGluR5a receptor, the maximum response (Emax) was 74%.
The corresponding values for `O=C1c2cc(COc3ccccc3)nn2CCN1c1ncccc1Cl` [Example 68] are 127.5 °C, 324 nM and 68%.
The corresponding values for `Cc1cc(N2CCn3nc(COc4ccccc4)cc3C2=O)ncc1F` [Example 72] are 134.7 °C, 91 nM and 72%.
`O=C1c2cc(COc3ccccc3)nn2CCN1c1cccc(CF)n1` [Example 76] came in with a melting point of 111.3 °C. In addition, at human mGluR5a receptor (read-out: EC50), the EC50 stood at 66 nM. Besides, the Emax on human mGluR5a receptor came out at 69%.
With `COc1ccnc(N2CCn3nc(COc4ccccc4)cc3C2=O)n1` [Example 78], the melting point was determined as 144.5 °C. Moreover, the EC50 on human mGluR5a receptor (read-out: EC50) turned out to be 490 nM. The maximal response (Emax) at human mGluR5a receptor amounted to 69%.
Molecule `O=C1c2cc(COc3ccccc3)nn2CCN1c1ccncn1` [Example 80] came in with a melting point of 148.9 °C. At human mGluR5a receptor (read-out: EC50), the EC50 is 1290 nM. Also, the Emax at human mGluR5a receptor turned out to be 71%.
The matching figures for `Cc1cc(N2CCn3nc(COc4ccccc4)cc3C2=O)ncn1` [Example 83]: 143.7 °C, 891 nM and 65%.
In turn, `Cc1ccc(N2CCn3nc(COc4ccccc4)cc3C2=O)nn1` [Example 84] yielded a melting point of 166.7 °C. For the same molecule, the EC50 on human mGluR5a receptor (read-out: EC50) is over 10000 nM. Further, the Emax on human mGluR5a receptor is 53%.
With `O=C1c2cc(COc3ccccc3)nn2CCN1c1cnccn1` [Example 87], the melting point turned out to be 239.3 °C. The EC50 at human mGluR5a receptor (read-out: EC50) was 813 nM. For the same molecule, on human mGluR5a receptor, the Emax turned out to be 56%.
The corresponding values for `Cc1nc(N2CCn3nc(COc4ccccc4)cc3C2=O)ncc1F` [Example 90] are 177.1 °C, 575 nM and 67%.
`COc1cc(C)nc(N2CCn3nc(COc4ccccc4)cc3C2=O)n1` [Example 99] displayed a melting point of 183.7 °C. The EC50 on human mGluR5a receptor (read-out: EC50) turned out to be 646 nM. Moreover, the maximal response (Emax) at human mGluR5a receptor is 67%.
The molecule `Cc1cnc(N2CCn3nc(COc4ccccc4)cc3C2=O)cn1` [Example 100] returned a melting point of 235.5 °C. The EC50 at human mGluR5a receptor (read-out: EC50) came to 955 nM. On human mGluR5a receptor, the Emax worked out at 67%.
The corresponding values for `COc1nc(N2CCn3nc(COc4ccccc4)cc3C2=O)cnc1C` [Example 102] are 158.1 °C, 120 nM and 69%.
The corresponding values for `COc1cc(C)cc(N2CCn3nc(COc4ccccc4)cc3C2=O)n1` [Example 104] are 140.9 °C, 54 nM and 67%.
The corresponding values for `COc1cc(N2CCn3nc(COc4ccccc4)cc3C2=O)nc(C)n1` [Example 105] are 131.9 °C, 219 nM and 53%.
With `COc1cnc(N2CCn3nc(COc4ccccc4)cc3C2=O)nc1OC` [Example 107], the melting point is 169.6 °C. Moreover, the EC50 at human mGluR5a receptor (read-out: EC50) worked out at 347 nM. The Emax at human mGluR5a receptor came to 63%.
With `COc1nc(N2CCn3nc(COc4ccccc4)cc3C2=O)ccc1C` [Example 108], the melting point worked out at 145.3 °C. The EC50 at human mGluR5a receptor (read-out: pEC50 (converted)) was 17.8 nM. Besides, at human mGluR5a receptor, the Emax came out at 64%.
The molecule `CC(C)c1cccc(N2CCn3nc(COc4ccccc4)cc3C2=O)n1` [Example 111] gave a melting point of 101.8 °C. On human mGluR5a receptor (read-out: EC50), the EC50 was 93 nM. Further, on human mGluR5a receptor, the Emax turned out to be 68%.
The matching figures for `COc1ccc(N2CCn3nc(COc4ccccc4)cc3C2=O)c(C)n1` [Example 114]: 136.3 °C, 100 nM and 68%.
The matching figures for `Cc1ccc(N2CCn3nc(COc4ccccc4)cc3C2=O)c(C)n1` [Example 116]: over 300 °C, 310 nM and 62%.
`Cc1cnc(C)c(N2CCn3nc(COc4ccccc4)cc3C2=O)n1` [Example 120] came in with a melting point of 141.7 °C. Besides, the EC50 at human mGluR5a receptor (read-out: EC50) turned out to be 750 nM. Besides, the maximal response (Emax) at human mGluR5a receptor came out at 67%.
On to `O=C1c2cc(COc3ccccc3)nn2CCN1c1ncc(F)cn1` [Example 126], for which the melting point amounted to 161.3 °C. For the same molecule, the EC50 at human mGluR5a receptor (EC50 (nM)) turned out to be 780 nM. Moreover, the Emax on human mGluR5a receptor came to 71%.
`Cc1nc(N2CC(C)n3nc(COc4ccccc4)cc3C2=O)ccc1F` (stereo not shown) [Example 134] had a melting point of 87.4 °C. Besides, at human mGluR5a receptor (read-out: EC50), the EC50 is 63 nM. Further, the Emax at human mGluR5a receptor was 70%.
`C[C@@H]1Cn2nc(COc3ccccc3)cc2C(=O)N1CC1CC1` [Example 137] returned a melting point of 64.6 °C. Further, the EC50 at human mGluR5a receptor (read-out: EC50) is 240 nM. Further, the Emax on human mGluR5a receptor came to 66%.
With `Cc1nc(N2C(=O)c3cc(COc4ccccc4)nn3C[C@@H]2C)ccc1F` [Example 138], the melting point was found to be 93.3 °C. In addition, the EC50 on human mGluR5a receptor (read-out: EC50) turned out to be 316 nM. For the same molecule, on human mGluR5a receptor, the Emax was 59%.
In turn, `Cc1nc(N2C(=O)c3cc(COc4ccccc4)nn3C[C@H]2C)ccc1F` [Example 140] registered a melting point of 156 °C. Also, on human mGluR5a receptor (read-out: EC50), the EC50 was 170 nM. Further, the Emax at human mGluR5a receptor amounted to 68%.
`C[C@@H]1Cn2nc(COc3ccccc3)cc2C(=O)N1c1ccc(F)cn1` [Example 141] yielded a melting point of 71.9 °C. The EC50 on human mGluR5a receptor (read-out: EC50) was found to be 195 nM. Also, the Emax at human mGluR5a receptor was 66%.
The corresponding values for `COc1cc(N2C(=O)c3cc(COc4ccccc4)nn3C[C@H]2C)ccc1F` [Example 143] are 135.8 °C, 81 nM and 62%.
Molecule `Cc1cc(N2C(=O)c3cc(COc4ccccc4)nn3C[C@H]2C)ccc1F` [Example 144] showed a melting point of 94.6 °C. Moreover, the EC50 at human mGluR5a receptor (read-out: pEC50 (converted)) is 32.4 nM. Moreover, the maximal response (Emax) at human mGluR5a receptor is 70%.
With `COc1ncccc1N1C(=O)c2cc(COc3ccccc3)nn2C[C@H]1C` [Example 148], the melting point came out at 145.5 °C. In addition, on human mGluR5a receptor (read-out: EC50), the EC50 was determined as 174 nM. Also, the Emax at human mGluR5a receptor worked out at 71%.
As to `COc1nccnc1N1C(=O)c2cc(COc3ccccc3)nn2C[C@H]1C` [Example 149], the melting point turned out to be 104.9 °C. For the same molecule, the EC50 at human mGluR5a receptor (read-out: EC50) came out at 794 nM. Further, the Emax on human mGluR5a receptor was determined as 64%.
In the case of `Cc1ccccc1N1C(=O)c2cc(COc3ccccc3)nn2C[C@H]1C` [Example 154], the melting point worked out at 171.5 °C. Also, the EC50 at human mGluR5a receptor (read-out: EC50) is 29 nM. At human mGluR5a receptor (read-out: pEC50 (converted)), the EC50 was 29.5 nM. Further, at human mGluR5a receptor, the maximal effect (Emax) amounted to 72%.
Take `Cc1cc(N2C(=O)c3cc(COc4ccccc4)nn3C[C@H]2C)ncc1F` [Example 155]: the melting point is 99.3 °C. For the same molecule, at human mGluR5a receptor (read-out: EC50), the EC50 stood at 130 nM. In addition, the maximal effect (Emax) on human mGluR5a receptor came out at 62%.
The molecule `COc1nc(N2C(=O)c3cc(COc4ccccc4)nn3C[C@H]2C)ncc1C` [Example 156] registered a melting point of over 300 °C. For the same molecule, the EC50 on human mGluR5a receptor (read-out: EC50) amounted to 540 nM. Moreover, the maximal effect (Emax) on human mGluR5a receptor amounted to 79%.
The matching figures for `O=C1c2cc(COc3ccncc3)nn2CCN1c1ccc(F)cc1` [Example 160]: 149.5 °C, 631 nM and 68%.
